Blank lines part the entries; values can stand above or below the compound they belong to.
Assays:
[1] = Drug excretion in human urine at 0.7 mg/kg, po measured after 8 to 24 hrs; type: ADME, organism-based; settings: time 8-24 hrs, read-out: Drug excretion
[2] = Half life in human at 0.7 mg/kg, po; type: ADME, organism-based; settings: in vivo
[3] = Oral bioavailability in human at 0.7 mg/kg; type: ADME, organism-based; settings: in vivo
[4] = Bioavailability in human at 10.3 mg; type: ADME, organism-based; settings: in vivo
[5] = Oral bioavailability in human at 0.03 mg/kg; type: ADME, organism-based; settings: in vivo
[6] = Dermal bioavailability in human at 0.46 mg/kg; type: ADME, organism-based; settings: in vivo, topical or ocular
[7] = Drug excretion in human urine measured for 24 hrs; type: ADME, tissue-based; settings: read-out: Drug excretion
[8] = Tmax in human at 0.03 mg/kg, po; type: ADME, organism-based; settings: in vivo
[9] = Drug excretion in human urine at 0.46 mg/kg dosed-dermally measured for 24 hrs; type: ADME, organism-based; settings: topical or ocular, read-out: Drug excretion
[10] = Half life in human at 0.03 mg/kg, po; type: ADME, organism-based; settings: in vivo
[11] = molecular target: Serine/threonine-protein kinase/endoribonuclease IRE1 (Mus musculus, UniProt Q9EQY0); experiment: Inhibition of mouse IRE1 assessed as reduction in XBP1 splicing using 5'-Alexa Fluor 647-CAUGUCCGCAGCGCAUG-BHQ1-3' as substrate preincubated for 30 mins followed by substrate addition by FRET assay
[12] = Protein binding in human plasma incubated for 240 mins by equilibrium dialysis; type: ADME, cell-free; settings: read-out: PPB (converted)
[13] = Half life in human liver supernatant; type: ADME, subcellular, Supernatent
[14] = Half life in human at 0.25%, OU administered once daily for 7 days; type: ADME; settings: topical or ocular, time 7 day
[15] = Drug metabolism in human assessed as Cmax of acid metabolite at 0.25%, OU administered once daily for 7 days; type: ADME; set-up: dose 0.25 %, time 7 day; settings: topical_or_ocular, 168 h
[16] = Cmax in human at 0.25%, OU administered once daily for 7 days; type: ADME; set-up: dose 0.25 %, time 7 day; settings: topical or ocular
[17] = Drug metabolism in human assessed as Tmax of acid metabolite at 0.25%, OU administered once daily for 7 days; type: ADME; settings: topical_or_ocular, 168 h, time 7 day
[18] = Tmax in human at 0.25%, OU administered once daily for 7 days; type: ADME; settings: topical or ocular, time 7 day
[19] = Drug metabolism in human assessed as half life of acid metabolite at 0.25%, OU administered once daily for 7 days; type: ADME; settings: topical_or_ocular, 168 h, time 7 day
[20] = Drug metabolism in human assessed as AUC (0 to infinity) of acid metabolite at 0.25%, OU administered once daily for 7 days; type: ADME; set-up: time 7 day, dose 0.25 %; settings: topical_or_ocular, 168 h
[21] = Half life in dog plasma at 5 ug/ml incubated for 1 to 24 hrs by LC/MS/MS method; type: ADME, cell-free, Canis lupus familiaris; settings: time 1-24 hrs, dose 5 µg/ml
[22] = Half life in mouse plasma at 5 ug/ml incubated for 1 to 24 hrs by LC/MS/MS method; type: ADME, cell-free; settings: time 1-24 hrs, dose 5 µg/ml
[23] = Half life in human plasma at 5 ug/ml incubated for 1 to 24 hrs by LC/MS/MS method; type: ADME, cell-free; settings: time 1-24 hrs, dose 5 µg/ml
[24] = Cmax in mouse at 3 mg/kg, po; type: ADME, organism-based; set-up: route oral, dose 3 mg/kg; settings: in vivo
[25] = Half life in mouse at 1 mg/kg, iv; type: ADME, organism-based; settings: in vivo
[26] = AUC (0 to 24 hrs) in mouse at 3 mg/kg, po; type: ADME, organism-based; set-up: time < 24 hr, route oral, dose 3 mg/kg; settings: in vivo
[27] = Tmax in mouse at 3 mg/kg, po; type: ADME, organism-based; settings: in vivo
[28] = Oral bioavailability in mouse at 3 mg/kg; type: ADME, organism-based; settings: in vivo
[29] = Volume of distribution at steady state in mouse at 1 mg/kg, iv; type: ADME, organism-based; settings: in vivo, read-out: Vdss
[30] = Clearance in mouse at 1 mg/kg, iv; type: ADME, organism-based; settings: in vivo
[31] = AUC (0 to 24 hrs) in mouse at 1 mg/kg, iv; type: ADME, organism-based; set-up: time < 24 hr, route intravenous, dose 1 mg/kg; settings: in vivo

Serine/threonine-protein kinase/endoribonuclease IRE1, sequence (Q9EQY0 whole entry): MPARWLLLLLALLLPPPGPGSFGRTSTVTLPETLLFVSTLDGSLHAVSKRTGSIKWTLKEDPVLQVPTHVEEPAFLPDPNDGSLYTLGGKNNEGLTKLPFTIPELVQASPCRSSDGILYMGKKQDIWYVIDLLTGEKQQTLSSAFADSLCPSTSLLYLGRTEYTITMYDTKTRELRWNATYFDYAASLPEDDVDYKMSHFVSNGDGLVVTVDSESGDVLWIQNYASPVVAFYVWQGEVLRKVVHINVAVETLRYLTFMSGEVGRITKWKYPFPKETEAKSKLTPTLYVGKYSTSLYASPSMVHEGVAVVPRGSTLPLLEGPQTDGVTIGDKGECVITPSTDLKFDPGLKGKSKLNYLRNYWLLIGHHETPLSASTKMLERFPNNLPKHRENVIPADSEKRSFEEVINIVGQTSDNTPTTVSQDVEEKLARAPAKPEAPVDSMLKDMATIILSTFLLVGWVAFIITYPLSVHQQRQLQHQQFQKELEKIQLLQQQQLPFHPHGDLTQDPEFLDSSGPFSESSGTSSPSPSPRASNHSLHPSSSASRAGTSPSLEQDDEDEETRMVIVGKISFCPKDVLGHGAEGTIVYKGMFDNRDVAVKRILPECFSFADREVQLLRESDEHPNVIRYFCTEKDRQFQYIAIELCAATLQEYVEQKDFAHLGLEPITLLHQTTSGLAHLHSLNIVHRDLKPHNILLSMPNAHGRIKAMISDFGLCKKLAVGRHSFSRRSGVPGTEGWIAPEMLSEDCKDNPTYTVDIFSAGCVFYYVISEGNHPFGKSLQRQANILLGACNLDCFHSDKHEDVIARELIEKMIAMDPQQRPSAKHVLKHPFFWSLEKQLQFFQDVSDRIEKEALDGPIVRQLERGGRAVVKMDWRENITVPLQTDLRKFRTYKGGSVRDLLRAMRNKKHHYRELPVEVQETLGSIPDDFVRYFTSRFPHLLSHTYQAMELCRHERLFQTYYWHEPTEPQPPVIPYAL

IC50 [11]: < 100 nM
Compound: COc1cc2c(C)c(CC(=O)N3CCOCC3)c(=O)oc2c(C=O)c1O

half-life [13]: < 0.25 h
half-life [14]: 0.4 h
Cmax [15]: 6 nM
Cmax [16]: 0.15 nM
fraction unbound at 4 h [12]: 0.61
Tmax [17]: 1.05 h
Tmax [18]: 0.25 h
t1/2 [19]: 2 h
AUC [20]: 0.0087 µM·h
Compound: CN1CCC(=C2c3ccccc3CCn3c(C=O)cnc32)CC1 [ALCAFTADINE]

Cmax [24]: 200 nM
half-life [25]: 1.4 h
AUC [26]: 0.25 µM·h
Tmax [27]: 2 h
F [28]: 21%
Vd [29]: 2.3 L/kg
clearance [30]: 28 mL/min/kg
AUC [31]: 1.16 µM·h
Compound: COCCNc1cc(NC(=O)N2CCCc3cc(CN4CCN(C)CC4=O)c(C=O)nc32)ncc1C#N [FGF401]

Further lines, the compound ahead of its results:

Compound: O=C/C=C/c1ccccc1
dose excreted [1]: 100%
half-life [2]: < 4 h
bioavailability [3]: 100%
bioavailability [4]: 9%

Compound: CC(CC=O)CCCC(C)(C)O (configuration not stated)
bioavailability [5]: 100%
bioavailability [6]: 5%
dose excreted at 24 h [7]: 94%
Tmax [8]: 2.7 h
dose excreted at 24 h [9]: 90%
half-life [10]: 3.28 h

Compound: CN1CCC(=C2c3ccccc3CCn3c(C(=O)O)cnc32)CC1
fraction unbound at 4 h [12]: 0.37

Compound: Cc1cc2c(C(C)C)c(O)c(O)cc2c(O)c1-c1c(C)cc2c(C(C)C)c(O)c(O)cc2c1O [APOGOSSYPOL]
half-life at 5 ug/ml [21]: < 1 h
half-life at 5 ug/ml [22]: < 1 h
half-life at 5 ug/ml [23]: < 1 h

Reference: ChEMBL document CHEMBL4813910, “Curse or Cure? A Perspective on the Developability of Aldehydes as Active Pharmaceutical Ingredients” (J Med Chem, 2020)
